Assay results taken from patent US9156801B2, “2-substituted oleanolic acid derivative, method preparing for same, and application thereof” (HANGZHOU BENSHENG PHARMACEUTICAL CO., LTD., priority 2011, dated 2015).
In brackets after ≈: the same amount, converted by molar mass.

How the values were obtained:
RPMI8226 cell line = assay: multiple myeloma cell growth inhibition, MTT; type: cell-based; details: Homo sapiens, RPMI-8226; for inhibition at 16 µg/mL: RPMI8226, 16 μg/mL compound, 72 h, read-out: IR (cell proliferation inhibition rate); for IC50: RPMI8226, 72 h
Method: Multiple myeloma cell lines: RPMI8226 (multiple myeloma), purchased from Fuxiang Bio-tech Co. Ltd., Shanghai, China.
(§1) Obtaining 6000 well-growing cells as above and inoculating them into wells of a 96-well cell culture plate. The culture medium is the 1640 cell culture medium containing 10% fetal bovine serum. After adding the 2-substituted oleanolic acid derivatives of different concentrations and mixing uniformly, placing the plate in a carbon dioxide cell incubator (5% CO2) at 37° C. and incubated for 72 hours. Then the relative number of viable cells is determined by MTT method. In this experiment, cell proliferation inhibition rate in control group (not treated with any compound) is set as 0%.

PC-3 cell line = assay: solid tumor cell growth inhibition, MTT; type: cell-based; details: Homo sapiens; for IC50: PC-3, 72 h; for inhibition at 16 µg/mL: PC-3, 16 μg/mL compound, 72 h, read-out: IR (cell proliferation inhibition rate)
Method: (§2) Hep-2 (laryngeal carcinoma), A549 (human lung cancer), CaES-17 (esophageal cancer cell), PC-3 (prostate cancer), CNE (nasopharyngeal carcinoma cell), and SK-OV-3 (ovarian cancer cell), all of which are purchased from China Center For Type Culture Collection; RKO (human colon adenocarcinoma cell), MGC 803 (human gastric cancer cell), MG63 (osteosarcoma) and U87 MG (malignant glioma cell), all of which are purchased from Fuxiang Bio-tech Co. Ltd., Shanghai, China; PANC-1 (pancreatic cancer), Hep G2 (human liver cancer cell), Becap37 (human breast cancer cell), and Hela (human cervical cancer cell), all of which are donated by Cancer Research Institute of Zhejiang University, China.
(§3) Obtaining 4000 well-growing human solid tumor cells and inoculating them into wells of a 96-well cell culture plate. The culture medium is DMEM High Glucose cell culture medium containing 10% fetal bovine serum. The plate is placed in a carbon dioxide cell incubator (5% CO2) at 37° C. for 24 hours. After adding the 2-substituted oleanolic acid derivatives of different concentrations and mixing uniformly, the plate is placed in a carbon dioxide cell incubator (5% CO2) at 37° C. and incubated for 72 hours. Then the relative number of the living cells is determined by MTT method. In this experiment, the cell proliferation inhibition rate in control group (not treated with any compound) is set as 0%.

RKO cell line = assay: solid tumor cell growth inhibition, MTT; type: cell-based; details: Homo sapiens, 72 h; for inhibition at 16 µg/mL: 16 μg/mL compound, read-out: IR (cell proliferation inhibition rate)
Method: as §2, §3

MGC 803 cell line = assay: solid tumor cell growth inhibition, MTT; type: cell-based; details: Homo sapiens; for inhibition at 16 µg/mL: MGC 803, 16 μg/mL compound, 72 h, read-out: IR (cell proliferation inhibition rate); for IC50: MGC 803, 72 h
Method: as §2, §3

MG-63 cell line = assay: solid tumor cell growth inhibition, MTT; type: cell-based; details: Homo sapiens; for IC50: MG-63, 72 h; for inhibition at 16 µg/mL: MG-63, 16 μg/mL compound, 72 h, read-out: IR (cell proliferation inhibition rate)
Method: as §2, §3

Hela cell line = assay: solid tumor cell growth inhibition, MTT; type: cell-based; details: Homo sapiens, 72 h; for IC50: HeLa; for inhibition at 16 µg/mL: Hela, 16 μg/mL compound, read-out: IR (cell proliferation inhibition rate)
Method: as §2, §3

CaES-17 cell line = assay: solid tumor cell growth inhibition, MTT; type: cell-based; details: Homo sapiens, CaEs17; for inhibition at 16 µg/mL: CaES-17, 16 μg/mL compound, 72 h, read-out: IR (cell proliferation inhibition rate); for IC50: CaES-17, 72 h
Method: as §2, §3

Hep-2 cell line = assay: solid tumor cell growth inhibition, MTT; type: cell-based; details: Homo sapiens; for IC50: HEp-2, 72 h; for inhibition at 16 µg/mL: Hep-2, 16 μg/mL compound, 72 h, read-out: IR (cell proliferation inhibition rate)
Method: as §2, §3

Becap37 cell line = assay: solid tumor cell growth inhibition, MTT; type: cell-based; details: Homo sapiens; for inhibition at 16 µg/mL: Becap37, 16 μg/mL compound, 72 h, read-out: IR (cell proliferation inhibition rate); for IC50: Becap37, 72 h
Method: as §2, §3

SK-OV-3 cell line = assay: solid tumor cell growth inhibition, MTT; type: cell-based; details: Homo sapiens; for IC50: SK-OV-3, 72 h; for inhibition at 16 µg/mL: SK-OV-3, 16 μg/mL compound, 72 h, read-out: IR (cell proliferation inhibition rate)
Method: as §2, §3

U87 MG cell line = assay: solid tumor cell growth inhibition, MTT; type: cell-based; details: Homo sapiens, U-87 MG, 72 h; for inhibition at 16 µg/mL: 16 μg/mL compound, read-out: IR (cell proliferation inhibition rate)
Method: as §2, §3

PANC-1 cell line = assay: solid tumor cell growth inhibition, MTT; type: cell-based; details: Homo sapiens; for IC50: PANC-1, 72 h; for inhibition at 16 µg/mL: PANC-1, 16 μg/mL compound, 72 h, read-out: IR (cell proliferation inhibition rate)
Method: as §2, §3

CNE cell line = assay: solid tumor cell growth inhibition, MTT; type: cell-based; details: Homo sapiens, 72 h; for inhibition at 16 µg/mL: 16 μg/mL compound, read-out: IR (cell proliferation inhibition rate)
Method: as §2, §3

A549 cell line = assay: solid tumor cell growth inhibition, MTT; type: cell-based; details: Homo sapiens; for IC50: A549, 72 h; for inhibition at 16 µg/mL: A549, 16 μg/mL compound, 72 h, read-out: IR (cell proliferation inhibition rate)
Method: as §2, §3

Hep G2 cell line = assay: solid tumor cell growth inhibition, MTT; type: cell-based, human; details: Homo sapiens; for inhibition at 16 µg/mL: HepG2, 72 h, Hep G2, 16 μg/mL compound, 72 h, read-out: IR (cell proliferation inhibition rate); for IC50: HepG2, Hep G2, 72 h
Method: as §2, §3

Jurkat cell line = assay: leukemia cell growth inhibition, MTT; type: cell-based; details: Homo sapiens, 72 h; for inhibition at 16 µg/mL: 16 μg/mL compound, read-out: IR (cell proliferation inhibition rate)
Source text: (§4) Leukemia cell lines: leukemia cell lines: K562/adr (drug-resistant, chronic myeloid leukemia, CML), NB4 (acute promyelocytic leukemia, AML), Kasumi-1 (acute myeloid leukemia M2 type, AML-M2), Jurkat (acute lymphoblastic leukemia, ALL), all of which are donated by Cancer Research Institute of Zhejiang University, China; and H9 (acute lymphoblastic leukemia, ALL), which is purchased from China Center for Type Culture Collection (CCTCC).
as §1, with “well-growing leukemia” for “well-growing”, “cells” for “cells as above”

H9 cell line = assay: leukemia cell growth inhibition, MTT; type: cell-based; details: Homo sapiens; for IC50: H9, 72 h; for inhibition at 16 µg/mL: H9, 16 μg/mL compound, 72 h, read-out: IR (cell proliferation inhibition rate)
Source text: as §4
as §1, with “well-growing leukemia” for “well-growing”, “cells” for “cells as above”

NB4 cell line = assay: leukemia cell growth inhibition, MTT; type: cell-based; details: Homo sapiens, NB-4; for inhibition at 16 µg/mL: NB4, 16 μg/mL compound, 72 h, read-out: IR (cell proliferation inhibition rate); for IC50: NB4, 72 h
Source text: as §4
as §1, with “well-growing leukemia” for “well-growing”, “cells” for “cells as above”

K562/adr cell line = assay: leukemia cell growth inhibition, MTT; type: cell-based; details: Homo sapiens, 72 h; for IC50: K562/Adr; for inhibition at 16 µg/mL: K562/adr, 16 μg/mL compound, read-out: IR (cell proliferation inhibition rate)
Source text: as §4
as §1, with “well-growing leukemia” for “well-growing”, “cells” for “cells as above”

Kasumi-1 cell line = assay: leukemia cell growth inhibition, MTT; type: cell-based; details: Homo sapiens; for inhibition at 16 µg/mL: Kasumi-1, 16 μg/mL compound, 72 h, read-out: IR (cell proliferation inhibition rate); for IC50: Kasumi-1, 72 h
Source text: as §4
as §1, with “well-growing leukemia” for “well-growing”, “cells” for “cells as above”

Row | SMILES | inhibition at 16 µg/mL (RPMI8226 cell line) | IC50 (RPMI8226 cell line) | IC50 (PC-3 cell line) | inhibition at 16 µg/mL (PC-3 cell line) | inhibition at 16 µg/mL (RKO cell line) | IC50 (RKO cell line) | inhibition at 16 µg/mL (MGC 803 cell line) | IC50 (MGC 803 cell line) | IC50 (MG-63 cell line) | inhibition at 16 µg/mL (MG-63 cell line) | IC50 (Hela cell line) | inhibition at 16 µg/mL (Hela cell line) | inhibition at 16 µg/mL (CaES-17 cell line) | IC50 (CaES-17 cell line) | IC50 (Hep-2 cell line) | inhibition at 16 µg/mL (Hep-2 cell line) | inhibition at 16 µg/mL (Becap37 cell line) | IC50 (Becap37 cell line) | IC50 (SK-OV-3 cell line) | inhibition at 16 µg/mL (SK-OV-3 cell line) | further results
1 | COC(=O)[C@]12CCC(C)(C)CC1C1=CCC3[C@@]4(C)CC(C(=O)NCCC(C)C)C(=O)C(C)(C)C4CC[C@@]3(C)[C@]1(C)CC2 (some centres unmarked) [BS-OA-031] | 4.4% | > 16 µg/mL | > 16 µg/mL | 9.8% | -12.1% | > 16 µg/mL | 0.8% | > 16 µg/mL | > 16 µg/mL | -1.3% | > 16 µg/mL | 2.5% | -4.7% | > 16 µg/mL | > 16 µg/mL | 10.5% | -5.8% | > 16 µg/mL | > 16 µg/mL | 18% | inhibition at 16 µg/mL (U87 MG cell line): 5.3%; IC50 (U87 MG cell line): > 16 µg/mL; IC50 (PANC-1 cell line): > 16 µg/mL; inhibition at 16 µg/mL (PANC-1 cell line): -1.4%; inhibition at 16 µg/mL (CNE cell line): 15.8%; IC50 (CNE cell line): > 16 µg/mL; IC50 (A549 cell line): > 16 µg/mL; inhibition at 16 µg/mL (A549 cell line): -6.3%; inhibition at 16 µg/mL (Hep G2 cell line): 6.7%; IC50 (Hep G2 cell line): > 16 µg/mL; inhibition at 16 µg/mL (Jurkat cell line): -28.5%; IC50 (Jurkat cell line): > 16 µg/mL; IC50 (H9 cell line): > 16 µg/mL; inhibition at 16 µg/mL (H9 cell line): 31.9%; inhibition at 16 µg/mL (NB4 cell line): -0.9%; IC50 (NB4 cell line): > 16 µg/mL; IC50 (K562/adr cell line): 12.1 µg/mL (≈ 20.7 µM); inhibition at 16 µg/mL (K562/adr cell line): 62.2%; inhibition at 16 µg/mL (Kasumi-1 cell line): 10%; IC50 (Kasumi-1 cell line): > 16 µg/mL
2 | COC(=O)[C@]12CCC(C)(C)CC1C1=CCC3[C@@]4(C)CC(C(=O)NCCc5ccccn5)C(=O)C(C)(C)C4CC[C@@]3(C)[C@]1(C)CC2 (some centres unmarked) [BS-OA-032] | 30.3% | > 16 µg/mL | > 16 µg/mL | 32.5% | -5.3% | > 16 µg/mL | 14.1% | > 16 µg/mL | > 16 µg/mL | 4.7% | 15.8 µg/mL (≈ 25.7 µM) | 57% | 22% | > 16 µg/mL | > 16 µg/mL | 5.2% | 4.1% | > 16 µg/mL | > 16 µg/mL | 26.3% | inhibition at 16 µg/mL (U87 MG cell line): 30.4%; IC50 (U87 MG cell line): > 16 µg/mL; IC50 (PANC-1 cell line): > 16 µg/mL; inhibition at 16 µg/mL (PANC-1 cell line): 14.5%; inhibition at 16 µg/mL (CNE cell line): 23.6%; IC50 (CNE cell line): > 16 µg/mL; IC50 (A549 cell line): > 16 µg/mL; inhibition at 16 µg/mL (A549 cell line): -6.6%; inhibition at 16 µg/mL (Hep G2 cell line): 23.7%; IC50 (Hep G2 cell line): > 16 µg/mL; inhibition at 16 µg/mL (Jurkat cell line): 75.4%; IC50 (Jurkat cell line): 10.8 µg/mL (≈ 17.6 µM); IC50 (H9 cell line): 13.6 µg/mL (≈ 22 µM); inhibition at 16 µg/mL (H9 cell line): 62.3%; inhibition at 16 µg/mL (NB4 cell line): 85.2%; IC50 (NB4 cell line): 9.82 µg/mL (≈ 15.9 µM); IC50 (K562/adr cell line): 12.9 µg/mL (≈ 20.9 µM); inhibition at 16 µg/mL (K562/adr cell line): 63.7%; inhibition at 16 µg/mL (Kasumi-1 cell line): 48.6%; IC50 (Kasumi-1 cell line): 16 µg/mL (≈ 25.9 µM)
